tested on: Aβ production in 293 751 SWE and CHO 751 SWE cells (transfected with APP-751 Swedish mutation); assay: Aβ production inhibition activity in cells (Aβ ELISA of conditioned media, normalized for cytotoxicity by MTT); assay type: cell-based; details: 2.5 μg/ml
Procedure, shortened: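 293 and CHO cells stably expressing APP-751 with the Swedish mutation were seeded in 96-well plates and grown overnight at 37° C. They were pretreated with compound for two hours, then given fresh compound-containing media for two more hours. Aβ in the conditioned media was quantified by sandwich ELISA (antibodies 266 and 6C6) and normalized to MTT viability versus drug-free control.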

`CC1(C)CC(C(=O)Nc2ccc(Cl)c(Cl)c2)CC(C)(C)N1` [Compound 231] was tested, and the “Aβ Production Inhibition Activity, % inhibition @ 2.5 μg/ml” value was 40-51%.

same assay, conditions: 10 μg/ml, % of drug-free control, normalized to MTT

First: CSc1ccc(NC(=O)Nc2cccc(Cl)c2Cl)cc1 [Compound 158]
Second: CSc1ccc(NC(=O)Nc2ccc(Cl)cc2Cl)cc1 [Compound 159]
The inhibition at 10 µg/mL of the first is higher: 51% for the first, 4% for the second.

Going from `CSc1ccc(NC(=O)Nc2cc(Cl)c(Cl)cc2C)cc1` [Compound 160] to `O=C(Nc1ccc(Cl)cc1)Nc1nncs1` [Compound 256], the inhibition at 10 µg/mL falls from 48% to 42%.

Compared with `CS(=O)(=O)c1ccc(NC(=O)Nc2ccc(Cl)cc2)cc1` [Compound 161], `CC(C)(C)c1ccc(Oc2ccc(NC(=S)Nc3ccc(Cl)cc3)cc2)cc1` [Compound 191] is lower in inhibition at 10 µg/mL: 40% for the first, 33% for the second.

Compared with `COC(=O)c1ccc(NC(=O)Nc2ccc(Cl)c(C(F)(F)F)c2)cc1OC` [Compound 165], `CC(C)(C)c1ccccc1Oc1ccc(NC(=S)Nc2ccc(Cl)c(C(F)(F)F)c2)cc1` [Compound 174] is higher in inhibition at 10 µg/mL: 42% for the first, 66% for the second.

First: CC(C)(C)c1ccc(Oc2ccccc2NC(=S)NCc2ccccc2)cc1 [Compound 181]
Second: CC(C)(C)c1ccc(Oc2ccccc2NC(=S)NCc2ccc(Cl)c(Cl)c2)cc1 [Compound 183]
The inhibition at 10 µg/mL of the first is higher: 52% for the first, 24% for the second.

First: Cc1ccc(CNC(=S)Nc2ccccc2Oc2ccc(C(C)(C)C)cc2)cc1C [Compound 184]
Second: CCCCCCNC(=S)Nc1ccccc1Oc1ccc(C(C)(C)C)cc1 [Compound 185]
The inhibition at 10 µg/mL of the first is higher: 36% for the first, 21% for the second.

Going from `CC(C)(C)c1cccc(Oc2ccc(NC(=S)Nc3ccccc3C(F)(F)F)cc2)c1` [Compound 189] to `CCCc1cc(C(C)(C)C)ccc1Oc1ccc(NC(=S)Nc2ccc(Cl)c(C(F)(F)F)c2)cc1` [Compound 193], the inhibition at 10 µg/mL falls from 37% to 29%.

Compared with `CCCc1cc(C(C)(C)C)ccc1Oc1ccc(NC(=S)NCc2cccc(C)c2)cc1` [Compound 194], `CCCc1cc(C(C)(C)C)ccc1Oc1ccc(NC(=S)Nc2ccc(C)c(C)c2)cc1` [Compound 196] is higher in inhibition at 10 µg/mL: 31% for the first, 44% for the second.

Compared with `CCCCCCNC(=S)Nc1ccc(C(=O)c2ccccc2)c(O)c1CCC` [Compound 202], `CCCc1c(NC(=S)Nc2ccc(C(C)(C)C)cc2)ccc(C(=O)c2ccccc2)c1O` [Compound 203] is lower in inhibition at 10 µg/mL: 42% for the first, 2% for the second.

First: Cc1nnc(NC(=O)Nc2cccc(Cl)c2)s1 [Compound 248]
Second: CSc1cccc(NC(=O)Nc2nnc(C)s2)c1 [Compound 252]
The inhibition at 10 µg/mL of the first is higher: 47% for the first, 25% for the second.

Going from `Cc1nnc(NC(=O)Nc2ccccc2F)s1` [Compound 249] to `Cc1nnc(NC(=O)Nc2c(C)cccc2C)s1` [Compound 251], the inhibition at 10 µg/mL falls from 6% to -13%.

First: CNC(=O)Nc1nnc(Br)s1 [Compound 253]
Second: CNC(=O)N(C)c1nnc(Br)s1 [Compound 254]
The inhibition at 10 µg/mL of the first is lower: 2% for the first, 11% for the second.

`O=C(Nc1ccccc1)Nc1nncs1` [Compound 255] showed an inhibition at 10 µg/mL of 1%.

Compared with `O=C(Nc1ccc(Cl)c(Cl)c1)c1ccccn1` [Compound 227], `O=C(Nc1ccc(Cl)c(Cl)c1)c1ncco1` [Compound 241] is lower in “Aβ Production Inhibition Activity, % inhibition at 10 μg/ml” value: 32% for the first, -8% for the second.

Going from `O=C(Nc1ccc(Cl)c(Cl)c1)N1CCCCC1` [Compound 229] to `CCN1CCCC(C(=O)Nc2ccc(Cl)c(Cl)c2)C1` (stereo not shown) [Compound 230], the “Aβ Production Inhibition Activity, % inhibition at 10 μg/ml” value rises from 8% to 28%.

In the case of `Cc1cc(C(=O)Nc2ccc(Cl)c(Cl)c2)no1` [Compound 242], the “Aβ Production Inhibition Activity, % inhibition at 10 μg/ml” value is reported as 29%.

same assay, conditions: 2 h pretreatment + 2 h incubation

Going from `CSc1ccc(NC(=O)Nc2cccc(Cl)c2)cc1Br` [Compound 162] to `CSc1ccc(NC(=O)Nc2ccc(SC)c(Br)c2)cc1` [Compound 164], the IC50 rises from 5.7 µM to 14.4 µM (2.5-fold). The first is the more potent here.

Going from `CSc1cc(Cl)c(NC(=O)Nc2cccc(Cl)c2)cc1Cl` [Compound 163] to `O=C(Nc1ccc(Cl)c(Cl)c1)Nc1nnc(Cl)s1` [Compound 232, 1-(5-chloro-1,3,4-thiadiazol-2-yl)-3-(3,4-dichlorophenyl)urea], the IC50 falls from 10.5 µM to 2 µM (5.2-fold). The second is the more potent here.

Compared with `FC(F)(F)c1cc(NC(=S)Nc2ccc(Cl)c(C(F)(F)F)c2)ccc1Cl` [Compound 166], `FC(F)(F)c1cc(NC(=S)Nc2ccc(Sc3ccccn3)cc2)ccc1Cl` [Compound 223] is 3-fold higher in IC50: 2.8 µM for the first, 8.3 µM for the second. The first is the more potent here.

`CC(C)(C)c1ccc(Oc2cccc(NC(=S)Nc3ccc(Cl)c(C(F)(F)F)c3)c2)cc1` [Compound 168] and `CC(C)(C)c1cccc(Oc2ccc(NC(=S)Nc3ccc(Cl)c(C(F)(F)F)c3)cc2)c1` [Compound 169] are within 1.5-fold of each other in IC50: 3.9 µM for the first, 4.6 µM for the second.

First: CC(C)(C)c1ccc(Oc2ccccc2NC(=S)Nc2ccc(Cl)c(C(F)(F)F)c2)cc1 [Compound 170]
Second: CC(C)(C)c1ccc(Oc2ccccc2N(O)C(=S)Nc2ccc(Cl)c(C(F)(F)F)c2)cc1 [Compound 171]
The IC50 of the first is 2.5-fold lower: 4.4 µM for the first, 10.8 µM for the second.

`CC(C)(C)c1cccc(Oc2cccc(NC(=S)Nc3ccc(Cl)c(C(F)(F)F)c3)c2)c1` [Compound 172] and `CC(C)(C)c1cccc(Oc2cccc(N(O)C(=S)Nc3ccc(Cl)c(C(F)(F)F)c3)c2)c1` [Compound 173] are within 1.5-fold of each other in IC50: 3.8 µM for the first, 2.8 µM for the second.

First: CC(C)(C)c1ccc(Oc2ccc(NC(=S)Nc3cccc(C(F)(F)F)c3)cc2)cc1 [Compound 175]
Second: CC(C)(C)c1cccc(Oc2ccc(NC(=S)Nc3cccc(C(F)(F)F)c3)cc2)c1 [Compound 176]
The IC50 of the first is 1.6-fold higher: 7.3 µM for the first, 4.6 µM for the second.

First: CC(C)(C)c1ccccc1Oc1ccc(NC(=S)Nc2cccc(C(F)(F)F)c2)cc1 [Compound 177]
Second: CC(C)(C)c1ccccc1Oc1ccc(NC(=S)Nc2ccccc2C(F)(F)F)cc1 [Compound 190]
The IC50 of the first is 1.8-fold lower: 7.6 µM for the first, 13.8 µM for the second.

`CC(C)(C)c1cccc(Oc2ccc(NC(=S)NCc3cccc(C(F)(F)F)c3)cc2)c1` [Compound 178] and `CC(C)(C)c1ccc(Oc2ccc(NC(=S)NCc3cccc(C(F)(F)F)c3)cc2)cc1` [Compound 179] are within 1.5-fold of each other in IC50: 8.6 µM for the first, 6.5 µM for the second.

`CC(C)(C)c1ccc(Oc2ccccc2CN(O)C(=S)NCc2ccccc2)cc1` [Compound 180] and `CC(C)(C)c1ccccc1Oc1ccc(NC(=S)NCc2ccccc2)cc1` [Compound 188] are within 1.5-fold of each other in IC50: 11.6 µM for the first, 9.4 µM for the second.

First: CCCCCCNC(=S)N(O)Cc1ccccc1Oc1ccc(C(C)(C)C)cc1 [Compound 182]
Second: CCCc1cc(C(C)(C)C)ccc1Oc1ccc(NC(=S)NCc2ccccc2)cc1 [Compound 197]
The IC50 of the first is 7.4-fold higher: 34 µM for the first, 4.6 µM for the second. The second is the more potent here.

`CC(C)(C)c1ccc(Oc2cccc(NC(=S)NCc3ccccc3)c2)cc1` [Compound 186] and `CC(C)(C)c1ccc(Oc2ccc(CSC(=S)NCc3ccccc3)cc2)cc1` [Compound 198] are within 1.5-fold of each other in IC50: 9 µM for the first, 10 µM for the second.

`CC(C)(C)c1cccc(Oc2cccc(CN(O)C(=S)NCc3ccccc3)c2)c1` [Compound 187] and `CC(C)(C)c1ccc(Oc2cccc(NC(=S)Nc3ccc(Cl)cc3)c2)cc1` [Compound 192] are within 1.5-fold of each other in IC50: 12.1 µM for the first, 8.8 µM for the second.

Going from `CCCc1cc(C(C)(C)C)ccc1Oc1ccc(NC(=S)Nc2cccc(C(F)(F)F)c2)cc1` [Compound 195] to `CCCc1c(NC(=S)Nc2cccc(C(F)(F)F)c2)ccc(C(=O)c2ccccc2)c1O` [Compound 201], the IC50 rises from 11 µM to 20 µM (1.8-fold).

First: CCCc1c(CSC(=S)NCc2ccccc2)ccc(C(C)=O)c1O [Compound 199]
Second: COC(=O)c1sc2ccccc2c1C(=O)Nc1ccc(Cl)c(Cl)c1 [Compound 233]
The IC50 of the first is 7.6-fold lower: 2 µM for the first, 15.2 µM for the second. The first is the more potent here.

First: Cc1nnc(NC(=O)Nc2ccc(Cl)c(Cl)c2)s1 [Compound 234, 1-(5-methyl-1,3,4-thiadiazol-2-yl)-3-(3,4-dichlorophenyl)urea]
Second: O=C(Nc1ccc(Cl)c(Cl)c1)Nc1nnc(Br)s1 [Compound 240, 1-(5-bromo-1,3,4-thiadiazol-2-yl)-3-(3,4-dichlorophenyl)urea]
The IC50 of the first is 2.8-fold higher: 5 µM for the first, 1.8 µM for the second.

First: O=C(Nc1ccc(Cl)c(Cl)c1)Nc1nncs1 [Compound 235, 1-1,3,4-thiadiazol-2-yl-3-(3,4-dichlorophenyl)urea]
Second: O=C(Nc1ccc(Cl)c(Cl)c1)Nc1nnc(C(F)(F)F)s1 [Compound 236, 1-(5-trifluoromethyl-1,3,4-thiadiazol-2-yl)-3-(3,4-dichlorophenyl)urea]
The IC50 of the first is 2.4-fold higher: 10 µM for the first, 4.2 µM for the second. The second is the more potent here.

Compared with `CC(C)(C)c1nnc(NC(=O)Nc2ccc(Cl)c(Cl)c2)s1` [Compound 237, 1-(5-t-butyl-1,3,4-thiadiazol-2-yl)-3-(3,4-dichlorophenyl)urea], `CC(C)(CCl)c1nnc(NC(=O)Nc2ccc(Cl)c(Cl)c2)s1` [Compound 238, 1-[5-(2-chloro-1,1-dimethylethyl)-1,3,4-thiadiazol-2-yl]-3-(3,4-dichlorophenyl)urea] is 2.1-fold lower in IC50: 2.9 µM for the first, 1.4 µM for the second.

Going from `CCCCCCSc1nnc(NC(=O)Nc2ccc(Cl)c(Cl)c2)s1` [Compound 239, 1-(5-hexylthio-1,3,4-thiadiazol-2-yl)-3-(3,4-dichlorophenyl)urea] to `Cc1nnc(NC(=O)Nc2ccc(F)c(Cl)c2)s1` [Compound 250, 1-(5-methyl-1,3,4-thiadiazol-2-yl)-3-(4-fluoro-3-chlorophenyl)urea], the IC50 rises from 1.4 µM to 9.8 µM (7-fold). The first is the more potent here.

Going from `O=C(Nc1ccc(Cl)c(Cl)c1)c1nccs1` [Compound 243] to `CC(C)(C)c1cc(C(=O)Nc2ccc(Cl)c(Cl)c2)on1` [Compound 245], the IC50 falls from 19.4 µM to 9.8 µM (2-fold). The second is the more potent here.

`CC(C)(C)c1noc(C(=O)Nc2ccc(Cl)c(Cl)c2)n1` [Compound 246] and `O=C(Nc1ccc(Cl)c(Cl)c1)c1nc(C(F)(F)F)no1` [Compound 247] are within 1.5-fold of each other in IC50: 5.8 µM for the first, 4.4 µM for the second.

From US5814646A, “Inhibitors of amyloid beta-protein production” (Eli Lilly and Company, priority 1995, dated 1998)
